# From publication PMC13221243, “Crosstalk Between Lysine Lactylation and Acetylation Regulates Lactate Dehydrogenase in Streptococcus mutans” (Genomics, Proteomics & Bioinformatics, 2025)
# Experiments:
# ActA [1] = molecular target: T1, ActA (Streptococcus mutans, UniProt Q8DVT1); test: in vitro acylation of LDH, anti-Kac Western blot; assay type: biochemical; conditions: acyl acceptor recombinant LDH; pH 7.5, 10 mM MgCl2, 37°C, 3 h
# T1 construct: gene SMU_386; recombinant His-tagged from pET28a, E. coli BL21(DE3), nickel purified
# T1 sequence (Q8DVT1 1-144): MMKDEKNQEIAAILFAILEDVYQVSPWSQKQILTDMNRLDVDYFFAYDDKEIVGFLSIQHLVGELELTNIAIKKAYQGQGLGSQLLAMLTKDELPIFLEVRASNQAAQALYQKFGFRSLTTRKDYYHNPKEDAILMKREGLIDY
# ActA [2] = molecular target: T1, ActA; test: in vitro acylation of LDH, anti-Kla Western blot; assay type: biochemical; conditions: acyl acceptor recombinant LDH; pH 7.5, 10 mM MgCl2, 37°C, 3 h
SMILES,"in vitro acylation of LDH, anti-Kac Western blot (ActA [1])","in vitro acylation of LDH, anti-Kla Western blot (ActA [2])"
CC(=O)SCCNC(=O)CCNC(=O)[C@H](O)C(C)(C)COP(=O)(O)OP(=O)(O)OC[C@H]1O[C@@H](n2cnc3c(N)ncnc32)[C@H](O)[C@@H]1OP(=O)(O)O [Ac-CoA],"However, ActA significantly increased the levels of Kla and Kac in LDH enzymatically.",–
CC(O)C(=O)SCCNC(=O)CCNC(=O)[C@H](O)C(C)(C)COP(=O)(O)OP(=O)(O)OC[C@H]1O[C@@H](n2cnc3c(N)ncnc32)[C@H](O)[C@@H]1OP(=O)(O)O (some centres unmarked) [La-CoA],–,"However, ActA significantly increased the levels of Kla and Kac in LDH enzymatically."
